Measurements: PubChem BioAssay AID248 (DTP/NCI, 2004)
“And” between values parts separate entries of the source, which are not always exact repeats. Identical values can stand only once. Toxic doses and inconclusive results are not listed.

Test system: L1210 leukemia ip in BDF1 mice, survival T/C
Test: NCI In Vivo Anticancer Drug Screen. Data for tumor model L1210 Leukemia (intraperitoneal) in B6D2F1 (BDF1) mice
Conditions: higher = longer survival
Outline: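 Ratio derived from survival: compound-dosed mice over vehicle-dosed mice, all bearing a transplantable tumor.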

SMILES: Nc1nc(=S)c2ncn(C3CC(O)C(CO)O3)c2[nH]1 (stereo unspecified)
- T/C (endpoint: mean survival time, dose: 0.15 mg/kg/injection, schedule: Q01DX015 (ip), vehicle: carboxymethylcellulose (CMC)): 121 % of control
- T/C (endpoint: mean survival time, dose: 0.31 mg/kg/injection, schedule: Q01DX009 (ip), vehicle: saline): 119 % of control
- T/C (endpoint: mean survival time, dose: 0.32 mg/kg/injection, schedule: Q01DX015 (ip), vehicle: carboxymethylcellulose (CMC)): 124 % of control
- T/C (endpoint: mean survival time, dose: 0.62 mg/kg/injection, schedule: Q01DX005 (ip), vehicle: clinical formulation): 153 % of control
- T/C (endpoint: mean survival time, dose: 0.62 mg/kg/injection, schedule: Q01DX009 (ip), vehicle: saline): 150 % of control
- T/C (endpoint: mean survival time, dose: 0.62 mg/kg/injection, schedule: Q01DX015 (ip), vehicle: carboxymethylcellulose (CMC)): 151 % of control
- T/C (endpoint: mean survival time, dose: 0.63 mg/kg/injection, schedule: Q03HX008 (ip), vehicle: saline): 162 % of control
- T/C (endpoint: mean survival time, dose: 0.63 mg/kg/injection, schedule: Q03HX024 (ip), vehicle: saline): 167 % of control
- T/C (endpoint: mean survival time, dose: 0.9 mg/kg/injection, schedule: Q01DX009 (ip), vehicle: saline with Tween-80): 150 % of control
- T/C (endpoint: mean survival time, dose: 1.25 mg/kg/injection, schedule: Q01DX005 (ip), vehicle: clinical formulation): 150 % of control and 171 % of control
- T/C (endpoint: mean survival time, dose: 1.25 mg/kg/injection, schedule: Q01DX005 (ip), vehicle: saline): 154 % of control
- T/C (endpoint: mean survival time, dose: 1.25 mg/kg/injection, schedule: Q01DX005 (ip), vehicle: water): 163 % of control
- T/C (endpoint: mean survival time, dose: 1.25 mg/kg/injection, schedule: Q01DX009 (ip), vehicle: saline): 156 % of control
- T/C (endpoint: mean survival time, dose: 1.25 mg/kg/injection, schedule: Q01DX015 (ip), vehicle: carboxymethylcellulose (CMC)): 180 % of control and 218 % of control
- T/C (endpoint: mean survival time, dose: 1.25 mg/kg/injection, schedule: Q03HX008 (ip), vehicle: saline): 155 % of control
- T/C (endpoint: mean survival time, dose: 1.25 mg/kg/injection, schedule: Q03HX016 (ip), vehicle: saline): 163 % of control
- T/C (endpoint: mean survival time, dose: 1.25 mg/kg/injection, schedule: Q03HX024 (ip), vehicle: saline): 157 % of control
- T/C (endpoint: mean survival time, dose: 1.56 mg/kg/injection, schedule: Q01DX009 (ip), vehicle: saline): 161 % of control and 173 % of control
- T/C (endpoint: mean survival time, dose: 1.87 mg/kg/injection, schedule: Q01DX015 (ip), vehicle: carboxymethylcellulose (CMC)): 113 % of control
- T/C (endpoint: mean survival time, dose: 2.5 mg/kg/injection, schedule: Q01DX001 (ip), vehicle: saline): 120 % of control
- T/C (endpoint: mean survival time, dose: 2.5 mg/kg/injection, schedule: Q01DX002 (ip), vehicle: Klucel (hydroxypropylcellulose) (HPC)): 177 % of control
- T/C (endpoint: mean survival time, dose: 2.5 mg/kg/injection, schedule: Q01DX005 (ip), vehicle: clinical formulation): 173 % of control and 178 % of control
- T/C (endpoint: mean survival time, dose: 2.5 mg/kg/injection, schedule: Q01DX005 (ip), vehicle: saline): 171 % of control
- T/C (endpoint: mean survival time, dose: 2.5 mg/kg/injection, schedule: Q01DX005 (ip), vehicle: water): 173 % of control
- T/C (endpoint: mean survival time, dose: 2.5 mg/kg/injection, schedule: Q01DX009 (ip), vehicle: saline): 161 % of control
- T/C (endpoint: mean survival time, dose: 2.5 mg/kg/injection, schedule: Q01DX015 (ip), vehicle: carboxymethylcellulose (CMC)): 155 % of control and 187 % of control
- T/C (endpoint: mean survival time, dose: 2.5 mg/kg/injection, schedule: Q03HX008 (ip), vehicle: saline): 156 % of control
- T/C (endpoint: mean survival time, dose: 2.5 mg/kg/injection, schedule: Q03HX016 (ip), vehicle: saline): 167 % of control
- T/C (endpoint: mean survival time, dose: 2.5 mg/kg/injection, schedule: Q04DX003 (ip), vehicle: saline): 155 % of control
- T/C (endpoint: mean survival time, dose: 2.5 mg/kg/injection, schedule: Q08DX002 (ip), vehicle: saline): 124 % of control
- T/C (endpoint: mean survival time, dose: 3.12 mg/kg/injection, schedule: Q01DX009 (ip), vehicle: saline): 191 % of control and 206 % of control
- T/C (endpoint: mean survival time, dose: 4.5 mg/kg/injection, schedule: Q01DX009 (ip), vehicle: saline with Tween-80): 208 % of control
- T/C (endpoint: mean survival time, dose: 5.0 mg/kg/injection, schedule: Q01DX005 (ip), vehicle: clinical formulation): 166 % of control and 202 % of control
- T/C (endpoint: mean survival time, dose: 5.0 mg/kg/injection, schedule: Q01DX005 (ip), vehicle: saline): 158 % of control
- T/C (endpoint: mean survival time, dose: 5.0 mg/kg/injection, schedule: Q01DX005 (ip), vehicle: water): 192 % of control
- T/C (endpoint: mean survival time, dose: 5.0 mg/kg/injection, schedule: Q01DX009 (ip), vehicle: saline): 156 % of control
- T/C (endpoint: mean survival time, dose: 5.0 mg/kg/injection, schedule: Q01DX015 (ip), vehicle: carboxymethylcellulose (CMC)): 166 % of control
- T/C (endpoint: mean survival time, dose: 5.0 mg/kg/injection, schedule: Q03HX024 (ip), vehicle: saline): 97 % of control
- T/C (endpoint: mean survival time, dose: 5.0 mg/kg/injection, schedule: Q04DX003 (ip), vehicle: saline): 152 % of control
- T/C (endpoint: mean survival time, dose: 6.0 mg/kg/injection, schedule: Q01DX005 (oral), vehicle: saline): 108 % of control
- T/C (endpoint: mean survival time, dose: 6.25 mg/kg/injection, schedule: Q01DX009 (ip), vehicle: saline): 153 % of control
- T/C (endpoint: mean survival time, dose: 7.0 mg/kg/injection, schedule: Q01DX015 (ip), vehicle: carboxymethylcellulose (CMC)): 150 % of control
- T/C (endpoint: mean survival time, dose: 7.5 mg/kg/injection, schedule: Q01DX015 (ip), vehicle: carboxymethylcellulose (CMC)): 151 % of control
- T/C (endpoint: mean survival time, dose: 10.0 mg/kg/injection, schedule: Q01DX005 (ip), vehicle: clinical formulation): 154 % of control and 198 % of control
- T/C (endpoint: mean survival time, dose: 10.0 mg/kg/injection, schedule: Q01DX005 (ip), vehicle: saline): 219 % of control
- T/C (endpoint: mean survival time, dose: 10.0 mg/kg/injection, schedule: Q01DX005 (ip), vehicle: water): 156 % of control
- T/C (endpoint: mean survival time, dose: 10.0 mg/kg/injection, schedule: Q01DX009 (ip), vehicle: saline): 95 % of control
- T/C (endpoint: mean survival time, dose: 10.0 mg/kg/injection, schedule: Q01DX015 (ip), vehicle: carboxymethylcellulose (CMC)): 114 % of control
- T/C (endpoint: mean survival time, dose: 10.0 mg/kg/injection, schedule: Q03HX008 (ip), vehicle: saline): 86 % of control
- T/C (endpoint: mean survival time, dose: 10.0 mg/kg/injection, schedule: Q04DX003 (ip), vehicle: Klucel (hydroxypropylcellulose) (HPC)): 156 % of control
- T/C (endpoint: mean survival time, dose: 10.0 mg/kg/injection, schedule: Q04DX003 (ip), vehicle: saline): 170 % of control
- T/C (endpoint: mean survival time, dose: 10.0 mg/kg/injection, schedule: Q08DX002 (ip), vehicle: saline): 154 % of control
- T/C (endpoint: mean survival time, dose: 12.0 mg/kg/injection, schedule: Q01DX005 (oral), vehicle: saline): 116 % of control
- T/C (endpoint: mean survival time, dose: 15.0 mg/kg/injection, schedule: Q01DX015 (ip), vehicle: carboxymethylcellulose (CMC)): 106 % of control and 155 % of control and 236 % of control
- T/C (endpoint: mean survival time, dose: 20.0 mg/kg/injection, schedule: Q01DX002 (ip), vehicle: Klucel (hydroxypropylcellulose) (HPC)): 115 % of control
- T/C (endpoint: mean survival time, dose: 20.0 mg/kg/injection, schedule: Q01DX005 (ip), vehicle: saline): 97 % of control
- T/C (endpoint: mean survival time, dose: 20.0 mg/kg/injection, schedule: Q04DX003 (ip), vehicle: saline): 190 % of control
- T/C (endpoint: mean survival time, dose: 20.0 mg/kg/injection, schedule: Q08DX002 (ip), vehicle: saline): 157 % of control
- T/C (endpoint: mean survival time, dose: 25.0 mg/kg/injection, schedule: Q01DX009 (ip), vehicle: saline): 94 % of control
- T/C (endpoint: mean survival time, dose: 40.0 mg/kg/injection, schedule: Q04DX003 (ip), vehicle: Klucel (hydroxypropylcellulose) (HPC)): 150 % of control
- T/C (endpoint: mean survival time, dose: 40.0 mg/kg/injection, schedule: Q08DX002 (ip), vehicle: saline): 168 % of control
- T/C (endpoint: mean survival time, dose: 50.0 mg/kg/injection, schedule: Q01DX005 (ip), vehicle: saline): 90 % of control
- T/C (endpoint: mean survival time, dose: 50.0 mg/kg/injection, schedule: Q01DX009 (ip), vehicle: saline): 86 % of control
- T/C (endpoint: mean survival time, dose: 60.0 mg/kg/injection, schedule: Q04DX003 (oral), vehicle: saline): 120 % of control
- T/C (endpoint: mean survival time, dose: 80.0 mg/kg/injection, schedule: Q08DX002 (ip), vehicle: saline): 153 % of control
- T/C (endpoint: mean survival time, dose: 96.0 mg/kg/injection, schedule: Q01DX005 (oral), vehicle: saline): 91 % of control
- T/C (endpoint: mean survival time, dose: 100.0 mg/kg/injection, schedule: Q01DX005 (ip), vehicle: saline): 155 % of control
- T/C (endpoint: mean survival time, dose: 120.0 mg/kg/injection, schedule: Q04DX003 (oral), vehicle: saline): 113 % of control
- T/C (endpoint: mean survival time, dose: 125.0 mg/kg/injection, schedule: Q01DX015 (ip), vehicle: carboxymethylcellulose (CMC)): 114 % of control
- T/C (endpoint: mean survival time, dose: 145.0 mg/kg/injection, schedule: Q01DX001 (ip), vehicle: saline with Tween-80): 160 % of control
- T/C (endpoint: mean survival time, dose: 240.0 mg/kg/injection, schedule: Q04DX003 (oral), vehicle: saline): 119 % of control
- T/C (endpoint: mean survival time, dose: 250.0 mg/kg/injection, schedule: Q01DX015 (ip), vehicle: carboxymethylcellulose (CMC)): 96 % of control
- T/C (endpoint: mean survival time, dose: 480.0 mg/kg/injection, schedule: Q04DX003 (oral), vehicle: saline): 96 % of control
- T/C (endpoint: mean survival time, dose: 960.0 mg/kg/injection, schedule: Q08DX002 (oral), vehicle: saline): 100 % of control
- T/C (endpoint: median survival time, dose: 0.06 mg/kg/injection, schedule: Q03HX024 (ip), vehicle: saline): 112 % of control
- T/C (endpoint: median survival time, dose: 0.07 mg/kg/injection, schedule: Q03HX024 (ip), vehicle: saline): 112 % of control
- T/C (endpoint: median survival time, dose: 0.12 mg/kg/injection, schedule: Q03HX024 (ip), vehicle: saline): 121 % of control
- T/C (endpoint: median survival time, dose: 0.13 mg/kg/injection, schedule: Q03HX024 (ip), vehicle: saline): 121 % of control
- T/C (endpoint: median survival time, dose: 0.5 mg/kg/injection, schedule: Q03HX024 (ip), vehicle: saline): 101 % of control
- T/C (endpoint: median survival time, dose: 1.0 mg/kg/injection, schedule: Q03HX024 (ip), vehicle: saline): 104 % of control
- T/C (endpoint: median survival time, dose: 32.0 mg/kg/injection, schedule: Q03HX024 (ip), vehicle: saline): 153 % of control
